Reference: US20030005927A1, “Process and device for inhalation of particulate medicaments” (priority 1996, published 2003)
Entries after “also recorded” stand apart in the source; their conditions may differ. Where a name gives a salt, the structure may show the parent alone.

Assay: Spray drying of solutions; particle geometric diameter and hollow/solid structure by photomicrograph
Format: physicochemical
Settings: for Geometric Diameter (average particle diameter) / Hollow or Solid: spray dried particles from aqueous solution; for Geometric Diameter (average particle diameter): VIRTIS spray dryer; for Hollow or Solid: photomicrographs
Procedure: Medicament powder of each of the two medicaments, albuterol sulfate and amiloride HCl (abbreviated herein as Alb S and Amil HCl, respectively), is employed in this example. Also, the excipient, lactose, is employed in this example. Aliquots of each of the medicaments, and also of lactose, are spray dried as follows.
15 g of Alb S (lot no. W 1946 FB) are dissolved in 300 ml of water to create a 5% solution. Similarly, 3.479 g of Amil HCl (lot no. 9007H 902) are diluted in water to 1000 ml to create a solution. Likewise, 15 g of lactose (lot no. 1NC25, 605 from Sheffield Products of Norwich, N.Y.) are diluted in water to 150 ml to create a solution.
Each solution is respectively spray dried using a VIRTIS™ (a spray dryer commercially available from The Virtis Company of Gardiner, N.Y.) with each of the air from the nozzle and from the blower set at its respective maximum value under the following conditions of temperature and rate, as summarized in Table A below: […]

Geometric Diameter (average particle diameter)	Hollow or Solid (listed as lactose)	average particle diameter of the largest particulate (spray dried, photomicrographs FIGS. 6 and 7)	Compound	Hollow or Solid	Hollow or Solid (HCl)
2 μm	spherical hollow particulates	about 17 μm	OC[C@H]1O[C@@H](O[C@H]2[C@H](O)[C@@H](O)C(O)O[C@@H]2CO)[C@H](O)[C@@H](O)[C@H]1O (some centres unmarked) [Lactose, lactose]	hollow spheres	–
1 to 5 μm	–	–	N=C(N)NC(=O)c1nc(Cl)c(N)nc1N [Amil HCl, amiloride HCl]	–	spherical hollow particulates; also recorded: hollow spheres
1 to 5 μm	–	–	albuterol sulfate [Alb S]	dimpled solid structures; also recorded: dimpled solids	–
